Measured values taken from paper PMC12040169 (PLOS Biology, 2025).

Experiment: in vitro
Settings: human, hela cells, % viability
For `Cn1cc2c(n1)[C@H]1CN(C(=O)c3cc(C(F)(F)F)n(C)n3)C[C@H]1C2` [CBK283399], the viability at 28.5 h, 10 µM was 88.5%. `CC(=O)Nc1ccc(CN2CCCC(c3cc4ncccc4[nH]3)C2)cc1` (centres unmarked) [CBK283402] gave a viability at 28.5 h, 10 µM of 92.4%. With `Cc1cc(-c2cn(C)nc2C2CCCCN2C(=O)C2CCC2)on1` (centres unmarked) [CBK283403] the viability at 28.5 h, 10 µM was 83.7%. For `Cc1cc(-c2cn(C)nc2C2CCCCN2C(=O)C2CCCC2)on1` (centres unmarked) [CBK283404], the viability at 28.5 h, 10 µM was 96.9%. With `CCCC(=O)N1CCCCC1c1nn(C)cc1-c1cc(C)no1` (centres unmarked) [CBK283407] the viability at 28.5 h, 10 µM was 106%. With `Cc1noc(-c2cn(C)nc2C2CCCCN2CC2CC2)c1C` (centres unmarked) [CBK283408] the viability at 28.5 h, 10 µM was 88.1%. Compound `CCCC(=O)N1CCCCC1c1nn(C)cc1-c1onc(C)c1C` (centres unmarked) [CBK283409] has a viability at 28.5 h, 10 µM of 80.5%. For `CCC(=O)N1CCCCC1c1nn(C)cc1-c1onc(C)c1C` (centres unmarked) [CBK283411], the viability at 28.5 h, 10 µM was 80.5%. Compound `Cn1ccc(C(=O)N2CCCC(c3cc4ncccc4[nH]3)C2)n1` (centres unmarked) [CBK283412] has a viability at 28.5 h, 10 µM of 89.8%. Work on `CC(C)(C)OC(=O)N1CCC(c2cc(=O)n3c(n2)CCCCC3)C1` (centres unmarked) [CBK283415] yielded a viability at 28.5 h, 10 µM of 88.4%. Compound `COc1cccc(C(=O)N2CCCC(c3cc4ncccc4[nH]3)C2)c1` (centres unmarked) [CBK283416] has a viability at 28.5 h, 10 µM of 104%. In the case of `COc1ccc(CC(=O)N2CCCC(c3cc4ncccc4[nH]3)C2)cc1` (centres unmarked) [CBK283418], the viability at 28.5 h, 10 µM is reported as 94.5%. `CC(C)n1cc(C(=O)N2CCCC(c3cc4ncccc4[nH]3)C2)cn1` (centres unmarked) [CBK283419] gave a viability at 28.5 h, 10 µM of 88.2%. In the case of `COc1ccc(CC(=O)N2CCC(c3cc4ccccc4cn3)C2)cc1` (centres unmarked) [CBK283421], the viability at 28.5 h, 10 µM is reported as 105%. `Cc1cc(O)cc(C2CCCN(C(=O)CC3CCCC3)C2)n1` (centres unmarked) [CBK283422] showed a viability at 28.5 h, 10 µM of 107%. `Cc1csc(C(=O)N2CCCC(c3cc(O)cc(C)n3)C2)c1` (centres unmarked) [CBK283423] showed a viability at 28.5 h, 10 µM of 89.5%. `COc1ccc(C(=O)N2C[C@H]3Cc4c(n[nH]c4C(F)F)[C@H]3C2)s1` [CBK283425] showed a viability at 28.5 h, 10 µM of 95.4%. Compound `O=C(CC1CCCCC1)N1CCCC1c1n[nH]cc1-c1ccncc1` (centres unmarked) [CBK283429] has a viability at 28.5 h, 10 µM of 90.4%. Compound `Cc1ccccc1CC(=O)N1CCCC1c1n[nH]cc1-c1ccncc1` (centres unmarked) [CBK283431] has a viability at 28.5 h, 10 µM of 87.7%. With `Cc1nc(C)c(C(=O)N2CCC(c3cc4cnccc4[nH]3)CC2)s1` [CBK283432] the viability at 28.5 h, 10 µM was 102%. With `O=C(c1ccccc1)N1CCCC1c1n[nH]cc1-c1ccncc1` (centres unmarked) [CBK283433] the viability at 28.5 h, 10 µM was 88.5%. With `O=C(Cc1ccccc1)N1CCCC1c1n[nH]cc1-c1ccncc1` (centres unmarked) [CBK283435] the viability at 28.5 h, 10 µM was 85.7%. With `Cc1cc(O)cc(C2CCCN(C(=O)c3cccc(F)c3)C2)n1` (centres unmarked) [CBK283440] the viability at 28.5 h, 10 µM was 100%. Compound `Cn1ccnc1C(=O)N1C[C@H]2CCc3c(n[nH]c3C(F)(F)F)[C@H]2C1` [CBK283441] has a viability at 28.5 h, 10 µM of 101%. With `Cc1cc(Oc2ccc(N(C)C)cc2)cc(C2CCCNC2)n1` (centres unmarked) [CBK283442] the viability at 28.5 h, 10 µM was 101%. `Cn1cc(-c2ccncc2)c(C2CCCCN2C(=O)c2ccccc2)n1` (centres unmarked) [CBK283444] showed a viability at 28.5 h, 10 µM of 75.7%. `O=C(c1ccc(F)cc1)N1CCC(c2cc3cnccc3[nH]2)CC1` [CBK283445] showed a viability at 28.5 h, 10 µM of 87.3%. `CN(C)c1ccc(C(=O)N2CCC(c3cc4cnccc4[nH]3)CC2)cc1` [CBK283446] showed a viability at 28.5 h, 10 µM of 83.8%. `O=C(COc1ccccc1)N1CCC(c2cc3cnccc3[nH]2)CC1` [CBK283449] showed a viability at 28.5 h, 10 µM of 97.6%. Compound `COCCC(=O)N1C[C@@H](c2cccc(F)c2)[C@@]2(CCCC(=O)N2)C1` [CBK283450] has a viability at 28.5 h, 10 µM of 88.1%. Compound `CCC(CC)C(=O)N1CCCC1c1nn(C)cc1-c1cc(C)no1` (centres unmarked) [CBK283452] has a viability at 28.5 h, 10 µM of 84.5%. Work on `Cc1cc(-c2cn(C)nc2C2CCCN2C(=O)CC(C)(C)C)on1` (centres unmarked) [CBK283453] yielded a viability at 28.5 h, 10 µM of 87.3%. For `COc1ccccc1C(=O)N1CCC[C@@H](N)[C@@H]1c1ccccc1F` [CBK283458], the viability at 28.5 h, 10 µM was 86%. In the case of `N[C@@H]1CCCN(Cc2ccncc2)[C@H]1c1ccccc1F` [CBK283459], the viability at 28.5 h, 10 µM is reported as 88.4%. Work on `Cc1ncsc1C(=O)N1CCCC(c2cc3cnccc3[nH]2)C1` (centres unmarked) [CBK283461] yielded a viability at 28.5 h, 10 µM of 94%. `CC(C)(C)OC(=O)N1CCC[C@]2(CCC(=O)N2)[C@H]1c1ccc(F)cc1` [CBK283462] showed a viability at 28.5 h, 10 µM of 86.1%. Compound `Fc1ccc(-c2c[nH]nc2C2CCOCC2)cc1` [CBK283464] has a viability at 28.5 h, 10 µM of 103%. For `Fc1cccc(-c2c[nH]nc2C2CCOCC2)c1` [CBK283465], the viability at 28.5 h, 10 µM was 91%. Work on `CCC(CC)C(=O)N1CCCC1c1n[nH]cc1-c1ccncc1` (centres unmarked) [CBK283467] yielded a viability at 28.5 h, 10 µM of 87.9%. In the case of `CC(=O)N1CCCC(c2[nH]c3cccnc3c2CN(C)C)C1` (centres unmarked) [CBK283469], the viability at 28.5 h, 10 µM is reported as 89.1%. With `CN(C)Cc1cc(-c2ccccc2F)nn1CCNC(=O)C1CCC1` [CBK283471] the viability at 28.5 h, 10 µM was 93.1%. Work on `Cc1cccc(CC(=O)N2CCCC2c2ccnc3cc(C)nn23)c1` (centres unmarked) [CBK283472] yielded a viability at 28.5 h, 10 µM of 105%. Work on `CN1C(=O)c2ccccc2C(=O)[C@@]2(C)CN(C3CCCC3)C[C@@H]12` [CBK283476] yielded a viability at 28.5 h, 10 µM of 83.3%. In the case of `CCN1C(=O)c2ccccc2C(=O)[C@@]2(C)CN(CC(C)C)C[C@@H]12` [CBK283479], the viability at 28.5 h, 10 µM is reported as 102%. `CN1C[C@H]2N(C)C(=O)c3ccccc3C(=O)[C@@]2(C)C1` [CBK283482] showed a viability at 28.5 h, 10 µM of 86.7%. For `CN(C(=O)C1CCCO1)c1nc2c(s1)CCc1occc1-2` (centres unmarked) [CBK283483], the viability at 28.5 h, 10 µM was 88.8%. In the case of `COc1ccc(NCc2cc3sccc3n2C)cc1OC` [CBK283486], the viability at 28.5 h, 10 µM is reported as 87%. `Fc1ccc(CNc2c(-c3cccs3)nc3cnccn23)cc1` [CBK283487] gave a viability at 28.5 h, 10 µM of 112%. Compound `O=C1NC2=C(C(=O)N(CCN3CCCC3)C2)C(c2ccccc2)N1` (centres unmarked) [CBK283493] has a viability at 28.5 h, 10 µM of 103%. `c1coc(CNc2c(-c3ccco3)nc3cnccn23)c1` [CBK283496] gave a viability at 28.5 h, 10 µM of 103%. `O=C(CN1CCC(O)(Cc2ccccc2)CC1)N1CCCCCC1` [CBK283500] gave a viability at 28.5 h, 10 µM of 96.9%. With `O=C(CN1CCC(c2ccc(F)cc2)CC1)N1CCCC1` [CBK283502] the viability at 28.5 h, 10 µM was 98.7%. With `CCN(CC)C(=O)N1CCC(c2ccncc2)CC1` [CBK283503] the viability at 28.5 h, 10 µM was 101%. With `O=C(CN1CCC(c2ccncc2)CC1)N1CCCCC1` [CBK283504] the viability at 28.5 h, 10 µM was 102%. For `c1ccc(CN2CCC(c3ccncc3)CC2)nc1` [CBK283505], the viability at 28.5 h, 10 µM was 101%. In the case of `O=C(c1cccnc1)C1CCN(C(=O)Cc2cccc(F)c2)CC1` [CBK283506], the viability at 28.5 h, 10 µM is reported as 101%. Work on `COC(=O)[C@H]1CN(C(=O)CN2CCCC2=O)C[C@@H]1c1ccc(F)cc1` [CBK283507] yielded a viability at 28.5 h, 10 µM of 93.3%. For `CCn1cc(C(=O)N2C[C@H](C(=O)OC)[C@@H](c3ccccc3F)C2)cn1` [CBK283510], the viability at 28.5 h, 10 µM was 94.2%. For `CC(C)c1nccn1CCC(=O)N1CCC(c2ccncc2)CC1` [CBK283512], the viability at 28.5 h, 10 µM was 105%. `Cc1nc2cc(C(=O)N3CCC(c4ccncc4)CC3)ccc2s1` [CBK283513] showed a viability at 28.5 h, 10 µM of 85.7%. For `O=C(c1cccnc1)C1CCN(C(=O)Cc2ccc(F)cc2)CC1` [CBK283515], the viability at 28.5 h, 10 µM was 90.5%. In the case of `COC(=O)[C@H]1CN(C(=O)Cc2ccccn2)C[C@@H]1c1ccc(F)cc1` [CBK283519], the viability at 28.5 h, 10 µM is reported as 93.8%. In the case of `COC(=O)[C@H]1CN(C(=O)c2scnc2C)C[C@@H]1c1ccc(F)cc1` [CBK283520], the viability at 28.5 h, 10 µM is reported as 104%. Compound `COC(=O)[C@H]1CN(C(=O)C2CC(=O)N(C)C2)C[C@@H]1c1ccc(F)cc1` (some centres unmarked) [CBK283521] has a viability at 28.5 h, 10 µM of 93%. Work on `O=C(CCn1cnc2ccccc21)N1CCC(c2ccncc2)CC1` [CBK283522] yielded a viability at 28.5 h, 10 µM of 102%.
